# Legend:
# Type in all cases: cell-based, human
# HOS Osteosarcoma = assay: Growth inhibition test on HOS cells; settings: Table 1
# Description: (§1) Growth inhibition tests on various human cell lines show the different activities of cisplatin, cis-oxoplatin and oxaliplatin. […] The following Table illustrates the results produced with cisplatin, oxoplatin, carboplatin and oxaliplatin (the values specified are IC50 values in μg/ml, i.e., the concentration where 50% of the cells survive, nd=not determined; res=resistant=non-sensitive or IC50 value cannot be determined at a concentration of up to 40 μg/ml; IC=inhibition concentration).
# SaOS Osteosarcoma = assay: Growth inhibition test on SaOS cells; settings: Table 1
# Description: as §1
# PC3 Prostate = assay: Growth inhibition test on PC3 cells; settings: for IC50: PC3 Prostate; for % Survival: PC3 cells
# Description: as §1
# M607 Melanoma = assay: Growth inhibition test on M607 cells; settings: Table 1
# Description: as §1
# M518 Melanoma = assay: Growth inhibition test on M518 cells; settings: Table 1
# Description: as §1
# Me128 Melanoma = assay: Growth inhibition test on Me128 cells; settings: Table 1
# Description: as §1
# JVSO Melanoma = assay: Growth inhibition test on JVSO cells; settings: Table 1
# Description: as §1
# Panc1 Pancreatic cancer = assay: Growth inhibition test on Panc1 cells; settings: Table 1
# Description: as §1
# BxPC3 Pancreatic cancer = assay: Growth inhibition test on BxPC3 cells
# Description: (§2) The effect of cis-oxoplatin Ca and cis-oxoplatin was compared on 10 cell lines (Table 4).
# (§3) (IC50 values specified in μg/ml; the test was performed as a formazan test).
# [1] = test system: MiaPaCa2 Pancreatic cancer; assay: Growth inhibition test on MiaPaCa2 cells; settings: Table 1
# Description: as §1
# HCT8 Colon carcinoma = assay: Growth inhibition test on HCT8 cells; settings: Table 1
# Description: as §1
# HT29 Colon carcinoma = assay: Growth inhibition test on HT29 cells
# Description: as §2, §3
# HCT-15 Colon carcinoma = assay: Growth inhibition test on HCT-15 cells; settings: Table 1
# Description: as §1
# A498 Renal cells = assay: Growth inhibition test on A498 cells; settings: Table 1
# Description: as §1
# C320DM Colon carcinoma = assay: Growth inhibition test on C320DM cells; settings: Table 1
# Description: as §1
# Colo205 Colon carcinoma = assay: Growth inhibition test on Colo205 cells
# Description: as §2, §3
# CC1227 Colon carcinoma = assay: Growth inhibition test on CC1227 cells; settings: Table 1
# Description: as §1
# MCF-7 Breast cancer = assay: Growth inhibition test on MCF-7 cells; settings: Table 1
# Description: as §1
# T47D Breast cancer = assay: Growth inhibition test on T47D cells
# Description: as §2, §3
# SK-OV3 Ovarian cancer = assay: Growth inhibition test on SK-OV3 cells; settings: Table 2
# Description: as §1
# U 373 MG Astrocytoma = assay: Growth inhibition test on U 373 MG cells; settings: Table 2
# Description: as §1
# SK-OV4 Ovarian cancer = assay: Growth inhibition test on SK-OV4 cells
# Description: as §1
# CaCo-2 Colon = assay: Growth inhibition test on CaCo-2 cells; settings: for IC50: CaCo-2 Colon
# Description: as §2, §3
# CRO2B Carcinoid = assay: Growth inhibition test on CRO2B cells; settings: for IC50: CRO2B Carcinoid
# Description: as §2, §3
# Du145 Prostate = assay: Growth inhibition test on Du145 cells; settings: for IC50: Du145 Prostate
# Description: as §2, §3
# SW480 Colon = assay: Growth inhibition test on SW480 cells; settings: for IC50: SW480 Colon
# Description: as §2, §3
# SIM Sarcoma = assay: Growth inhibition test on SIM cells
# Description: as §1
# What is seen primarily in children are leukemias, neuroblastomas and Ewing's sarcoma/peripheral neuroectodermal tumors (group of the Ewing family of tumors=EFT). The investigated tumor cell lines include three EFTs (EW-7, SIM and KAL), as well as two neuroblastoma cell lines (NB: LAN1 and LAN5; Los Angeles neuroblastoma=LAN) (see Table 3).
# [2] = test system: HT29, SW480, SK-OV4, PC3, SIM, CaCO-2, DU145 and CRO2B cells; assay: Growth inhibition, IC50 over eight cell lines of Table 2; settings: CaCO-2, DU145, CRO2B
# Description: as §1
# The activities differ according to the cell line.
# MDA-MB-435 Breast = assay: Formazan test on MDA-MB-435 cells; settings: Table 4
# Description: as §2, §3
# BT20 Breast = assay: Formazan test on BT20 cells; settings: Table 4
# Description: as §2, §3
# 10 cell lines (Table 4) = assay: Formazan test, IC50 mean value for all cell lines of Table 4; settings: mean over the 10 cell lines of Table 4
# Description: as §2, §3
# [3] = Table 1, BxPC3 Pancreatic cancer
# [4] = Table 1, Colo205 Colon carcinoma
compound,measurement,setting,value
"N.N.O=C([O-])C1(C(=O)[O-])CCC1.[Pt+2] [Carboplatin, carboplatin]",IC50,HOS Osteosarcoma,5 mg/L
same,IC50,SaOS Osteosarcoma,5 mg/L
same,IC50,PC3 Prostate; Table 1,10 mg/L
same,IC50,M607 Melanoma,10 mg/L
same,IC50,M518 Melanoma,res (res=resistant=non-sensitive or IC50 value cannot be determined at a concentration of up to 40 μg/ml)
same,IC50,Me128 Melanoma,10 mg/L
same,IC50,JVSO Melanoma,res (res=resistant=non-sensitive or IC50 value cannot be determined at a concentration of up to 40 μg/ml)
same,IC50,Panc1 Pancreatic cancer,20 mg/L
same,IC50,BxPC3 Pancreatic cancer; [3],10 mg/L
same,IC50,[1],5 mg/L
same,IC50,HCT8 Colon carcinoma,res (res=resistant=non-sensitive or IC50 value cannot be determined at a concentration of up to 40 μg/ml)
same,IC50,"HT29 Colon carcinoma; Table 1, HT29 Colon carcinoma",20 mg/L
same,IC50,HCT-15 Colon carcinoma,res (res=resistant=non-sensitive or IC50 value cannot be determined at a concentration of up to 40 μg/ml)
same,IC50,A498 Renal cells,res (res=resistant=non-sensitive or IC50 value cannot be determined at a concentration of up to 40 μg/ml)
same,IC50,C320DM Colon carcinoma,10 mg/L
same,IC50,Colo205 Colon carcinoma; [4],res (res=resistant=non-sensitive or IC50 value cannot be determined at a concentration of up to 40 μg/ml)
same,IC50,CC1227 Colon carcinoma,res (res=resistant=non-sensitive or IC50 value cannot be determined at a concentration of up to 40 μg/ml)
same,IC50,MCF-7 Breast cancer,res (res=resistant=non-sensitive or IC50 value cannot be determined at a concentration of up to 40 μg/ml)
"N.N.[Cl][Pt][Cl] [Cisplatin, cisplatin]",IC50,PC3 Prostate; Table 1,res (res=resistant=non-sensitive or IC50 value cannot be determined at a concentration of up to 40 μg/ml)
same,IC50,M607 Melanoma,0.3 mg/L
same,IC50,M518 Melanoma,40 mg/L
same,IC50,Me128 Melanoma,0.3 mg/L
same,IC50,JVSO Melanoma,40 mg/L
same,IC50,Panc1 Pancreatic cancer,1 mg/L
same,IC50,BxPC3 Pancreatic cancer; [3],0.6 mg/L
same,IC50,[1],1.5 mg/L
same,IC50,HCT8 Colon carcinoma,5 mg/L
same,IC50,"HT29 Colon carcinoma; Table 1, HT29 Colon carcinoma",0.3 mg/L
same,IC50,HCT-15 Colon carcinoma,0.3 mg/L
same,IC50,A498 Renal cells,1 mg/L
same,IC50,C320DM Colon carcinoma,0.3 mg/L
same,IC50,Colo205 Colon carcinoma; [4],10 mg/L
same,IC50,CC1227 Colon carcinoma,0.3 mg/L
same,IC50,MCF-7 Breast cancer,2.5 mg/L
same,IC50,"T47D Breast cancer; Table 1, T47D Breast cancer",0.3 mg/L
"O=C1[O][Pt]2([NH][C@@H]3CCCC[C@H]3[NH]2)[O]C1=O [Oxaliplatin, oxaliplatin]",IC50,M607 Melanoma,10 mg/L
same,IC50,M518 Melanoma,res (res=resistant=non-sensitive or IC50 value cannot be determined at a concentration of up to 40 μg/ml)
same,IC50,Me128 Melanoma,10 mg/L
same,IC50,JVSO Melanoma,res (res=resistant=non-sensitive or IC50 value cannot be determined at a concentration of up to 40 μg/ml)
same,IC50,Panc1 Pancreatic cancer,5 mg/L
same,IC50,BxPC3 Pancreatic cancer; [3],10 mg/L
same,IC50,[1],5 mg/L
same,IC50,HCT8 Colon carcinoma,res (res=resistant=non-sensitive or IC50 value cannot be determined at a concentration of up to 40 μg/ml)
same,IC50,"HT29 Colon carcinoma; Table 1, HT29 Colon carcinoma",20 mg/L
same,IC50,HCT-15 Colon carcinoma,10 mg/L
same,IC50,A498 Renal cells,10 mg/L
same,IC50,C320DM Colon carcinoma,0.15 mg/L
same,IC50,Colo205 Colon carcinoma; [4],1 mg/L
same,IC50,CC1227 Colon carcinoma,0.2 mg/L
same,IC50,MCF-7 Breast cancer,res (res=resistant=non-sensitive or IC50 value cannot be determined at a concentration of up to 40 μg/ml)
same,IC50,"T47D Breast cancer; Table 1, T47D Breast cancer",0.1 mg/L
"[NH2][Pt]([NH2])([O-])([O-])([Cl])[Cl].[Na+].[Na+] [cis-Oxoplatin sodium salt, cis-diammoniumdichlorodihydroxoplatinum(IV) Disodium Salt]",more effective than cis-oxoplatin,"PC3 Prostate; PC3, Na salt versus cis-oxoplatin",about 30%
same,% Survival,PC3 Prostate; Conc. 5 μg/ml,109.3 ± 9.1%
same,% Survival,PC3 Prostate; Conc. 10 μg/ml,77.7 ± 2.4%
same,% Survival,PC3 Prostate; Conc. 20 μg/ml,33.2 ± 3.0%
same,% Survival,PC3 Prostate; Conc. 40 μg/ml,0.6 ± 0.5%
same,IC50,PC3 Prostate; Table 2,5.3 mg/L
same,IC50,"BxPC3 Pancreatic cancer; Table 2, BxPC3 Pancreatic carcinoma",12 mg/L
same,more effective than cis-oxoplatin,"HT29 Colon carcinoma; HT29, Na salt versus cis-oxoplatin",about 70%
same,IC50,"HT29 Colon carcinoma; Table 2, HT29 Colon",4.55 mg/L
same,IC50,"T47D Breast cancer; Table 2, T47D Breast cancer",18 mg/L
same,IC50,SK-OV3 Ovarian cancer,22 mg/L
same,IC50,U 373 MG Astrocytoma,18 mg/L
same,more effective than cis-oxoplatin,"SK-OV4 Ovarian cancer; SK-OV4, Na salt versus cis-oxoplatin",about 30%
same,IC50,"SK-OV4 Ovarian cancer; Table 2, SK-OV4 Ovarian cancer",12.8 mg/L
same,efficiency compared with cis-oxoplatin,"CaCo-2 Colon; CaCO-2, Na salt versus cis-oxoplatin",less efficient
same,IC50,CaCo-2 Colon; Table 2,2.22 mg/L
same,efficiency compared with cis-oxoplatin,"CRO2B Carcinoid; CRO2B, Na salt versus cis-oxoplatin",less efficient
same,IC50,CRO2B Carcinoid; Table 2,10.1 mg/L
same,efficiency compared with cis-oxoplatin,"Du145 Prostate; DU145, Na salt versus cis-oxoplatin",less efficient
same,IC50,Du145 Prostate; Table 2,27.0 mg/L
same,more effective than cis-oxoplatin,"SW480 Colon; SW480, Na salt versus cis-oxoplatin",about 70%
same,IC50,SW480 Colon; Table 2,2.5 mg/L
same,more effective than cis-oxoplatin,"SIM Sarcoma; SIM, Na salt versus cis-oxoplatin",about 30%
same,IC50,"SIM Sarcoma; Table 2, SIM Sarcoma",11.2 mg/L
same,IC50 values of these cells (mean ± spread),[2],9.5 ± 8 mg/L
cis-diammoniumdichlorodihydroxoplatinum(IV) Calcium Salt [Oxoplatin Ca],IC50,"BxPC3 Pancreatic cancer; Table 4, BxPC3 Pancreas, formazan test",30.0 mg/L
same,IC50,"HT29 Colon carcinoma; Table 4, HT29 Colon, formazan test",8.0 mg/L
same,IC50,"Colo205 Colon carcinoma; Table 4, Colo205 Colon, formazan test",13.5 mg/L
same,IC50,"T47D Breast cancer; Table 4, T47D Breast, formazan test",3.6 mg/L
same,IC50,"CaCo-2 Colon; Table 4, formazan test",0.87 mg/L
same,IC50,"CRO2B Carcinoid; Table 4, formazan test",2.20 mg/L
same,IC50,"Du145 Prostate; Table 4, formazan test",14.5 mg/L
same,IC50,"SW480 Colon; Table 4, formazan test",2.5 mg/L
same,IC50,MDA-MB-435 Breast,12.0 mg/L
same,IC50,BT20 Breast,3.5 mg/L
same,IC50 (±SEM) mean value for all cell lines,10 cell lines (Table 4),9.1 ± 2.8 mg/L
